Legend:
[1] = Competitive inhibition of ATP binding
[2] = target: Inosine-5'-monophosphate dehydrogenase (IMPDH) (Homo sapiens, UniProt P20839+P12268); assay: Inhibition of […] dehydrogenase (IMPDH); range 7-8 nM; format: protein assay
[3] = organism: Homo sapiens; assay: Inhibition of growth of human keratinocytes; format: functional
[4] = Inhibition of growth of T-cell lymphoblastoma; range 1-10 uM; format: functional
[5] = target: T1, Vitamin D3 receptor (Homo sapiens, UniProt P11473); assay: Binding affinity to VDR receptor
T1 sequence (P11473 whole entry): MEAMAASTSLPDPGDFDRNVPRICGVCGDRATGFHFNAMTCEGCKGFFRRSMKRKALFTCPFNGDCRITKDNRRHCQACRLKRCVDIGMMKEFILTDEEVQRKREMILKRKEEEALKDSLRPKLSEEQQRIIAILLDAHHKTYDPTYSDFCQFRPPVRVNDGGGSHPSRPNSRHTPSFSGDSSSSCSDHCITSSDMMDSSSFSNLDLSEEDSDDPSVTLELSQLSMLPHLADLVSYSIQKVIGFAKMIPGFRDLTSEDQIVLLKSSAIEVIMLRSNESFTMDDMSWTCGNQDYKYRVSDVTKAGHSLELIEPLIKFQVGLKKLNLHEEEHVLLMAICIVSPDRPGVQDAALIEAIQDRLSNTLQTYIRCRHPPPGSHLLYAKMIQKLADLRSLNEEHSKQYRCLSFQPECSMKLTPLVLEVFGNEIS

COc1cc2ncnc(Nc3cccc(Br)c3)c2cc1OC
IC50 [1]: 0.025 nM

COc1cc(NC(=O)Nc2cccc(CNC(=O)O[C@H]3CCOC3)c2)ccc1-c1cnco1 [MERIMEPODIB]
IC50 [2]: 7 nM

COc1c(C)c2c(c(N)c1C/C=C1\CCCC1[C@H](C)C(=O)O)C(=O)OC2 (some centres undefined)
IC50 [2]: 7 nM

C=C1/C(=C\C=C2/CCC[C@]3(C)[C@@H]([C@H](C)/C=C/[C@@H](O)C4CC4)CC[C@@H]23)C[C@@H](O)C[C@@H]1O [CALCIPOTRIENE]
IC50 [3]: 32 nM

C/C(O)=C(\C#N)C(=O)Nc1ccc(C(F)(F)F)cc1
Concentration [4]: 1 µM

C=C1/C(=C\C=C2/CCC[C@]3(C)C([C@@H](C)COc4ccc(C(C)(C)O)cc4)CC[C@@H]23)C[C@@H](O)C[C@@H]1O (some centres undefined)
Kd [5]: 0.073 nM
IC50 [3]: 0.11 nM

C=C1/C(=C\C=C2/CCC[C@]3(C)C([C@@H](C)CSc4ccc(C(C)(C)O)cc4)CC[C@@H]23)C[C@@H](O)C[C@@H]1O (some centres undefined)
Kd [5]: 0.089 nM
IC50 [3]: 0.28 nM

— ChEMBL document CHEMBL1134331, “New dermatological agents for the treatment of psoriasis” (J Med Chem, 2001)
